Source: patent US20020187514A1 (priority 1999, published 2002)
pKi: −log10 of the molar value. Structures can show the parent of a compound that is named as a salt.

Columns and labels:
[1] = target: Imidazoline, I2, central; assay: Imidazoline, I2, central; [3H]2-BFI; format: binding; conditions: reference compound, QA/QC; read-out: Ref Kj
[2] = target: Melatonin; assay: Melatonin; [125I]-2-Iodomelatonin; format: binding; conditions: reference compound, QA/QC; read-out: Ref Kj
[3] = target: Imidazoline, I1; assay: Imidazoline, I1; [125I]-Clonidine; format: binding; conditions: reference compound, QA/QC; read-out: Ref Kj
[4] = target: Histamine, H3; assay: Histamine, H3; [3H]N-a-MeHistamine; format: binding; conditions: reference compound, QA/QC; read-out: Ref Kj
[5] = target: Glucocorticoid (UniProt P06536); conditions: read-out: Ref Kj
[6] = target: T1, Histamine, H1 (Bos taurus, UniProt P30546); assay: Histamine, H1; [3H]Pyrilamine; format: binding
T1 construct: no other source notation after assay name denotes animal cell or animal tissue source; from tissue; host or cells: animal cell or animal tissue, not specified
T1 sequence (P30546 whole entry): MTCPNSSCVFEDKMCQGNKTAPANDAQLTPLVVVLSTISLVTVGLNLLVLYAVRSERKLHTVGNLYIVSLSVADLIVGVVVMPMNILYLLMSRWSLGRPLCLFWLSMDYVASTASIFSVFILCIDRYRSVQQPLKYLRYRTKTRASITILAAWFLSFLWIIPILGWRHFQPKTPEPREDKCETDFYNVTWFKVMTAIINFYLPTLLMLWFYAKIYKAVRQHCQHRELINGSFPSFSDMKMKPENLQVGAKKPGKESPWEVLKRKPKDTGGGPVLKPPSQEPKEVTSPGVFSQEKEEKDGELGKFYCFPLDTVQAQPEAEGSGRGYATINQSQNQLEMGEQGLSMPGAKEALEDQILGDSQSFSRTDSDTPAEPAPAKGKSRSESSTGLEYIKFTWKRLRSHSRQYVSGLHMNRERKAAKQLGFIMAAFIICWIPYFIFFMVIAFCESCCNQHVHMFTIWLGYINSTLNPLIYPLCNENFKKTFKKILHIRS

Chain of Glucocorticoid (P06536 whole entry): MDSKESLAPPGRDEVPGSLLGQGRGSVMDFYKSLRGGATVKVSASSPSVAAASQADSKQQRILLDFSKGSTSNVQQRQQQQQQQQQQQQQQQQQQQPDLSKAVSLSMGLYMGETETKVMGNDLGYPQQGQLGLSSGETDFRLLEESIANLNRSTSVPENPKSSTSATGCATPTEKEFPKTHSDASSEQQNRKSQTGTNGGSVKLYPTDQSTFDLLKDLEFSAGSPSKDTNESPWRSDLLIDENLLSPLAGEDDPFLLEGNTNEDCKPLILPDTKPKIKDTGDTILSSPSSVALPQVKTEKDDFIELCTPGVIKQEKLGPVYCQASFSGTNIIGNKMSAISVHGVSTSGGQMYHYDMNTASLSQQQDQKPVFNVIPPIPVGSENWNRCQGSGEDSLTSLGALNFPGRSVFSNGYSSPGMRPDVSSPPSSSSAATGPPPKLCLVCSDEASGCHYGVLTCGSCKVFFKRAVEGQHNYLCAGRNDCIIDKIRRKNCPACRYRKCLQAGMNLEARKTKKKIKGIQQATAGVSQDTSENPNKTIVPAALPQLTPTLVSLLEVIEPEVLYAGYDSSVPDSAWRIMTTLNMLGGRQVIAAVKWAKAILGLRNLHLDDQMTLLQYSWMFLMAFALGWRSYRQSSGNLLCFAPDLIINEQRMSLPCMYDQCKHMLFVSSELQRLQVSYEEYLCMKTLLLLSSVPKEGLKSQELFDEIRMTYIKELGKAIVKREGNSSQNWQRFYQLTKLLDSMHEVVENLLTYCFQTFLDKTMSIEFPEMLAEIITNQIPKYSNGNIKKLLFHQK

c1ccc2oc(C3=NCCN3)cc2c1 [2-BFI]
pKi [1]: 10.27

Clc1cc(I)cc(Cl)c1NC1=NCCN1 [Iodoclonidine]
pKi [3]: 8.10

CNCCc1cnc[nH]1 [N-a-Methylhistamine (NAMH), N-a-Methylhistamine]
pKi [4]: 8.88

C[C@]12C=CC(=O)C=C1CC[C@H]1[C@@H]3C[C@@H](O)[C@](O)(C(=O)CO)[C@@]3(C)C[C@H](O)[C@@]12F [Triamcinolone]
pKi [5]: 8.76

Cc1ccc(/C(=C\CN2CCCC2)c2ccccn2)cc1 [Triprolidine HCl]
pKi [6]: 8.44
